Laboratory results: paper PMC9694048 (Pharmaceutics, 2022)
Where a SMILES comes first, the peptide text is derived from it. [ ]: non-standard residue; d: D form.

Key:
WERI-Rb1 tumor spheroids = experiment: Tumor spheroid area by high content imaging; type: cell-based; details: 7-day-old WERI-Rb1 spheroids, IC50 dose, 48 h, n = 9 per condition
Protocol: Spheroids were developed using the hanging drop protocol on low attachment U-bottom 96-well plate. The single cell suspension of 5 × 10^2 WERI-Rb1 cells in 100 µL medium was loaded in each well of a 96-well plate. The cells were cultured at 37 °C in a 90% humidified incubator with 5% CO2 for 7 days for the generation of tight and regular tumor spheroids. Seven-day-old spheroids (n = 9 per condition) were treated with 100 μL of freshly prepared medium containing an IC50 dose of topotecan (Figure S1), HC3, or HC5. The cultures were then incubated for 48 h prior to high content analysis (HCA) and immunofluorescence (IF) assays.
WERI-Rb1 cells were stained with orange plasma membrane stain as per the manufacturer’s protocol (Cell Mask Orange Plasma membrane stain; cat#C10045, Invitrogen, Waltham, MA, USA) prior to the development of spheroids. The stained WERI-Rb1 cells were used for spheroid formation using the hanging drop protocol on a low attachment U-bottom 96-well plate. […] The images were acquired using the automated high-content imaging system, IN Cell Analyzer 6000 (GE Healthcare, Singapore), equipped with a laser-based confocal platform having a 2× objective. The automatically captured single well imaging of spheroids and a Z stack of 11 images were separated by 50 µm total 500 µm depth for spheroids, using maximum intensity projection (MIP) acquisition and single-channel filter at 567 nm. To reduce data storage and image analysis time, we analyzed 2D projection images of tumor spheroids for multiple treatment conditions. Spheroid area and shape were automatically quantified by HCA using the IN-Cell 6000 software (GE Healthcare, Singapore). The mean area (µm^2) of each spheroid was calculated to elucidate the drug/peptide response.

WERI-Rb1 cells [1] = experiment: Western blot of DNA damage markers; type: cell-based; details: IC50 dose
Protocol: WERI-Rb1 cells were seeded in 6-well cell culture plates (1 × 10^6 cells/well), incubated at 37 °C in a humidified 5% CO2 incubator, and were treated with IC50 doses of topotecan, HC3. or HC5. After 48 h, cells were lysed in RIPA buffer (20 mM Tris pH 8.0, 0.1% SDS, 150 mM NaCl, 0.08% sodium deoxycholate, 1% NP40 supplemented with one tablet of protease inhibitor and phosphatase inhibitor (Roche). 20 µg of total protein was loaded per lane and separated by SDS-PAGE. The separated proteins on the gel were transferred to PVDF membrane and were probed for antibodies against γH2A.X (1:1000, cat#2595, Cell Signaling Technology, Danvers, MA, USA), p-γH2A.X (Ser139) (1:1000, cat#2577, Cell Signaling Technology, Danvers, MA, USA), p-BCL2(Ser70) (1:1000, cat#2827, Cell Signaling Technology, Danvers, MA, USA), BCL2 (1:1000, cat#2872, Cell Signaling Technology, Danvers, MA, USA), Bax (1:1000, cat#2772, Cell Signaling Technology, Danvers, MA, USA), p-ATM(Ser1981) (1:1000, cat#5883, Cell Signaling Technology, Danvers, MA, USA), ATM (1:1000, cat#2873, Cell Signaling Technology, Danvers, MA, USA), p-Chk2(Thr68) (1:1000, cat#2661, Cell Signaling Technology, Danvers, MA, USA), Chk2 ([…], cat#2662, Cell Signaling Technology, Danvers, MA, USA), p-p53(Ser15) (1:1000, cat#9284, Cell Signaling Technology, Danvers, MA, USA), p-p53(Ser46) (1:1000, cat#2521, Cell Signaling Technology, Danvers, MA, USA), p53 (1:1000, cat#2524, Cell Signaling Technology, Danvers, MA, USA), Cleaved caspase 9 (1:1000, cat#9505, Cell Signaling Technology, Danvers, MA, USA), Cleaved caspase 3 (1:1000, cat#9661, Cell Signaling Technology, Danvers, MA, USA), Cleaved PARP (1:1000, cat#5625, Cell Signaling Technology, Danvers, MA, USA), and GAPDH (1:2000, cat#ab9485, Abcam, Cambridge, UK). Proteins of interest were detected with HRP-conjugated sheep anti-mouse (1:5000, cat#7076, Cell Signaling Technology, Danvers, MA, USA) or anti-rabbit IgG antibody (1:5000, cat#7074, Cell Signaling Technology, Danvers, MA, USA) and visualized with the Clarity ECL Western blotting substrate (Bio-Rad, Hercules, CA, USA) according to the provided protocol.

WERI-Rb1 cells [2] = experiment: MTS cell viability assay; type: cell-based; details: WERI-Rb1 cells, 48 h; dose used for spheroid treatment
Protocol: (§1) WERI-Rb1 and ARPE-19 cells were seeded at a concentration of 2 × 10^3 cells/well in a 96-well plate and cultured at 37 °C in a humidified 5% CO2 incubator. After seeding the cells, they were treated with various concentrations of CAPs and further incubated for 48 h at 37 °C. Cell viability was assessed after 48 h using the Cell-Titer 96® Aqueous One Solution Cell Proliferation Assay (cat#G3582, Promega, WI, USA) according to the manufacturer’s protocol and described earlier. Briefly, 10 µL of MTS reagent was added to each well and the cells were incubated at 37 °C for 2 h before the experiment end time points. Percentage cell viability was calculated from the absorbance measured at 490 nm using a TECAN microplate reader.

ARPE-19 cells [3] = experiment: MTS cell viability assay; type: cell-based, Human; details: ARPE-19, MTS, 48 h (Figure 2c)
Protocol: as §1

WERI-Rb1 cells [4] = experiment: Trypan blue viability assay; type: cell-based; details: WERI-Rb1, 48 h treatment
Protocol: WERI-Rb1 cells (1 × 10^5) were treated with increasing concentrations (7.7 µM, 36.25 µM, 72.5 µM, 145 µM, or 290 µM) of a panel of six HC peptides (HC1, HC2, HC3, HC4, HC5, and HC6). Nocodazole (10 µM) treatment was used as a positive control for the study, with untreated cells as the negative control. All treatments were performed at 37 °C in a 90% humidified incubator with 5% CO2 for 48 h. After 48 h post-treatment, cells were stained with 0.4% trypan blue (cat#15250061, Invitrogen, Waltham, MA, USA) and the number of live and dead cells for each time point was estimated using the hemocytometer cell counting protocol. The percentage of cell viability was calculated by dividing the live cell count by the total cell count.

ARPE-19 cells [5] = experiment: Western blot of apoptotic markers in cytoplasmic and mitochondrial fractions; type: cell-based, Human; details: ARPE-19, 48-h exposure, cytoplasmic and mitochondrial fractions (Figure 5c)

Compound: N=C(N)NCCC[C@H](NC(=O)[C@@H](CCCCN)NC(=O)[C@H](CCCNC(=N)N)NC(=O)[C@@H](CCCCN)NC(=O)[C@H](CCCNC(=N)N)NC(=O)[C@@H](CCCCN)NC(=O)[C@H](CCCNC(=N)N)NC(=O)[C@@H](CCCCN)NC(=O)[C@H](CCCNC(=N)N)NC(=O)[C@@H](CCCCN)NC(=O)[C@H](CCCNC(=N)N)NC(=O)[C@H](N)CCCCN)C(=O)O [HC5] (H-[dK]R[dK]R[dK]R[dK]R[dK]R[dK]R-OH; N-terminus and C-terminus assumed)
- effect on Rb spheroid size (WERI-Rb1 tumor spheroids): effectively shrunk and decreased the Rb spheroid size
- phosphorylation of ATM and CHK2 (immunoblot) (WERI-Rb1 cells [1]; 48-h treatment, Western blot (Figure 4b)): induced phosphorylation of ATM (ataxia-telangiectasia mutated) at Ser1981 and CHK2 at Thr68
- γH2A.X phosphorylation at Ser139 (immunoblot) (WERI-Rb1 cells [1]; 48 h, Western blot (Figure 4a)): did not show any activation of γH2A.X(Ser139)
- IC50 (WERI-Rb1 cells [2]): 65.2 µL/mL
- cytotoxic effect on non-malignant ARPE-19 cells (ARPE-19 cells [3]): did not display any cytotoxic effect
- cell death at a high dose (WERI-Rb1 cells [4]; high dose (dose not specified)): 60%
- cell death at a low dose (WERI-Rb1 cells [4]; low dose (dose not specified)): 40%
- apoptotic events in ARPE-19 cells (Bax, cytochrome c) (ARPE-19 cells [5]): did not trigger any apoptotic events
